Columns and labels:
[1] = system: high fat+fructose (HF/HS) diet hamsters; test: 18-day oral dosing lipid study in HF/HS hamsters; type: in vivo, male Golden Syrian hamsters
Description: We examined the effects of diet modulation on the lipid profile of male Syrian Golden hamsters. Hamsters were ordered from Charles River Labs (Wilmington, Mass.), and requested to be 111-120 g in weight (correspondingly 56-61 days old). Hamsters were kept in cages of 4-5 per cage, and maintained on a standard light cycle of 12 hours on/12 hours off. All diets were obtained from Dyets, Inc. (Bethlehem, Pa.). “Normal Diet” was a standard rodent chow, catalog #5001, produced into pellets. Water and this standard chow diet were available to this group of hamsters ad libitum. Food was added to cages as needed, but no less frequently than twice per week. “High Fat Diet” was the same standard rodent chow supplemented with the following: 11.5% corn oil, 11.5% coconut oil, 0.5% cholesterol, and 0.25% deoxycholate. This is also available directly from Dyets, Inc., as catalog #611201. Both diets were ordered in 10 kg batches and stored at 4° C. for durations of the experiments (4-8 weeks), and at −20° C. for longer storage (up to six months). Water and this high fat diet were available to this group of hamsters ad libitum. The “High Fat+Fructose” group was fed the same fat-supplemented chow as the “high fat diet” group (#611201), but water was supplemented with fructose to a final concentration of 10%. Fructose was supplied from Now Foods (catalog #6931) and distributed by Lucky Vitamin (catalog #WB48432). Fructose water was prepared by adding 400 g of fructose to 4 L of water and stirring at room temperature until dissolved. Fructose water was stored at 4° C. until use. When provided to hamsters, fructose water was kept in a water bottle in the hamster cages at room temperature, exactly as standard water was. Fructose water and high fat chow were provided to this group of hamsters ad libitum. All animals remained on their respective diets for 21 days.
To begin this experiment, hamsters were randomly assigned to groups defined by the diet modifications above. After a fixed time, blood was collected from hamsters (N=3-4) to determine the lipid contents of the plasma. Because of limitations in the ability to adequately collect blood from hamsters, all blood samples were obtained via a terminal cardiac puncture preceded by asphyxiation with carbon dioxide. Blood (approximately 2 mL volume) was collected with a 22 G needle into a 5 mL syringe and transferred to a K2EDTA tube. The samples were kept on ice until centrifugation (14,000 rpm for 10 minutes at 4° C.) to separate plasma. Plasma was then aliquoted to tubes for storage at −80° C. until analysis.
Lipid parameters were determined using commercially available kits from Wako USA (Richmond, Va.) according to manufacturer's directions.
Male Golden Syrian hamsters were purchased from Charles River Labs (111-120 g, 56-61 days) and acclimated to a high fat+fructose (herein, referred to as “HF/HS”) diet as described above for two weeks. Hamsters were assigned into cohorts by body weight after two weeks' acclimation to the diet. […] Hamsters were dosed once per day for a total of 18 days. All animals remained on the above-described HF/HS diet throughout the dosing period. Dosing solutions for each cohort were prepared for 7 days at a time, although enough was prepared to last for 8 days. Each solution was stored at room temperature between administrations. Cohorts were defined according to Table 2 below.

high fat-fed hamsters = test: Liver function tests (AST, ALT) in plasma of chronically dosed hamsters; type: in vivo, hamster; settings: vs vehicle
Description: In order to investigate this, we examined the common liver functional enzymes AST and ALT in the plasma of hamsters from experiment described above in Example 3. These animals were dosed for 18 consecutive days, while being on a HF/HS diet for a total of nearly 5 weeks. We also examined the glucose levels in the plasma of these animals. For pharmacokinetic studies, we utilized wild type mice for both single and repeated administration study. Finally, pharmacokinetic studies were corroborated by data from single and repeated administration to monkeys.
This led to an investigation of liver function tests (AST, ALT) from plasma of hamsters dosed for 18 days with ARI-001. AST and ALT were measured using commercially available kits (Bio-Quant Diagnostic Kits, San Diego, Calif.). As expected, AST and ALT values from untreated hamsters (vehicle group) were very high, as the high fat diet leads to hepatomegaly and fatty liver. This disease state is reflected in the elevated AST and ALT levels.

[2] = Single oral dose pharmacokinetic comparison niacin, ARI-001, 2230C in wild type mice; type: in vivo, C57BL/6 mice; settings: single bolus oral gavage, mouse plasma
Text: Compound 2230C has the structure

CETP mRNA = test: qPCR of liver and adipose mRNA in HF/HS hamsters; type: in vivo, hamster; settings: ARI-001 2240 mg/kg oral 18 days; relative to mean of vehicle
Text: Hamster livers and adipose were preared in manners similar to that described for ARI-001 concentration determination. Briefly, to prepare for analysis, a sample of liver was excised from the frozen mass, weighed, and homogenized with a tissue grinder followed by sonication in buffer. The solid materials were then removed by centrifugation. The resulting lysate was used in qPCR analysis to quantify the specific mRNA measured (vide infra) using primers designed for the specific sequences of interest. All mRNA quantities were normalized to vehicle-treated animal, and mRNA levels were expressed as a fold increase or decrease relative to vehicle-treated. […] During grinding, liquid nitrogen was added to ensure the sample of adipose remained solid. The ground sample was transferred to a tared tube to weigh total sample. This ground sample was treated with buffer and prepared for qPCR to quantify specific mRNA quantities.

GPR109A = molecular target: T1, GPR109A (Homo sapiens, UniProt Q8TDS4); test: PathHunter eXpress β-arrestin recruitment assay; type: cell-based; settings: concentrations up to 10 mM, 90 minutes
T1 construct: β-galactosidase enzyme fragment (ProLink-type complementation tag); expressed in transfected cells
T1 sequence (Q8TDS4 whole entry, the tested form may be a part): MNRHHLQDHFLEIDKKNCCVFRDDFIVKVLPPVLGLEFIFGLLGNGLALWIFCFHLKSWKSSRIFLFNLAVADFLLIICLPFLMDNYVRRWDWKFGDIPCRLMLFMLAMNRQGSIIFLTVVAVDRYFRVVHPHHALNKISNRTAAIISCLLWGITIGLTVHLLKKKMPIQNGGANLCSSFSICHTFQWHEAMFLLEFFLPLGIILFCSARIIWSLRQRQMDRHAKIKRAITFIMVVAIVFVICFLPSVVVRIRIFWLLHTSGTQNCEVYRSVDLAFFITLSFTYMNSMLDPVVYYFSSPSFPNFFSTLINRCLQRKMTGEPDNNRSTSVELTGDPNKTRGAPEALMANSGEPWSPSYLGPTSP
Text: Walters R W et al. (2009) J Clin Invest 119:1312-21. […] G protein-coupled receptor (GPCR) activity was detected by measuring the interaction of β-arrestin with the activated GPCR using […] enzyme fragment complementation.

[3] = ARI-001 2240 mg/kg oral once daily 18 days, plasma, mean ± SD
[4] = ARI-001 2240 mg/kg vs molar equivalent niacin 1200 mg/kg, 18 days

O=C(O)c1ccc(CCN2CCOCC2)nc1 [ARI-001]
TC (total cholesterol) ([1]; ARI-001 2240 mg/kg (9.75 mmol/kg) oral gavage once daily 18 days, plasma, mean ± SD): 343 ± 104 mg/dL | HDL/TC ([1]; ARI-001 2240 mg/kg oral once daily 18 days, mean ± SD): 0.48 ± 0.07 | FFA (free fatty acids) [1, 3]: 0.75 ± 0.15 mEq/L | HDL [1, 3]: 186 ± 74 mg/dL | LDL [1, 3]: 114 ± 33 mg/dL | TG (triglycerides) [1, 3]: 138 ± 80 mg/dL | efficacy relative to niacin, LDL cholesterol parameter [1, 4]: at least 1.67 times | efficacy relative to niacin, total cholesterol parameter [1, 4]: at least 1.54 times | increase of absolute HDL value compared to vehicle ([1]; ARI-001 2240 mg/kg, 18 days): 33% | TC (total cholesterol) ([1]; ARI-001 […] (4.88 mmol/kg) oral gavage once daily 18 days, plasma, mean ± SD): 653 ± 194 mg/dL | AST (high fat-fed hamsters; 2240 mg/kg oral 18 days): drastically reduced | ALT (high fat-fed hamsters; 1120 and 2240 mg/kg oral 18 days, dose-dependent): similarly reduced | AUC ([2]; C57BL/6): 1100 µM·h | Cmax ([2]; C57BL/6): 309 µM | Tmax ([2]; C57BL/6): 22.8 min | half-life ([2]; C57BL/6, read-out: half-life (t1/2) (converted)): 85.8 min | AUC (% Niacin) [2]: 9.4 % Niacin | Cmax (% Niacin) [2]: 7.5 % Niacin | Cmax/AUC0-24 [2]: 0.28 h⁻¹ | Adipose CETP mRNA per mg tissue (CETP mRNA): 1.72 ± 0.70 fold-change | Liver CETP mRNA per mg tissue (CETP mRNA): 2.05 ± 0.38 fold-change | recruitment of β-arrestin to the membrane of cells expressing GPR109A (GPR109A): failed to recruit β-arrestin

Source: patent US8937063B2 (Trustees of Tufts College, priority 2010, dated 2015)
